PubChem BioAssay (NCI)
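Test compounds were applied to cells in 96-well plates for 48 hours at 5 doses. GI50: concentration for 50% inhibition of growth. TGI marks complete inhibition of growth.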

Key:
Test in all cases: NCI tumour cell line growth inhibition, 48 h
786-0 renal = tested on: 786-0 renal
A498 renal = tested on: A498 renal
A549 NSCLC = tested on: A549 NSCLC
ACHN renal = tested on: ACHN renal
BT-549 breast = tested on: BT-549 breast
CAKI-1 renal = tested on: CAKI-1 renal
CCRF-CEM leukemia = tested on: CCRF-CEM leukemia
COLO 205 colon = tested on: COLO 205 colon
DU-145 prostate = tested on: DU-145 prostate
EKVX NSCLC = tested on: EKVX NSCLC
HCC-2998 colon = tested on: HCC-2998 colon
HCT-116 colon = tested on: HCT-116 colon
HCT-15 colon = tested on: HCT-15 colon
HOP-62 NSCLC = tested on: HOP-62 NSCLC
HOP-92 NSCLC = tested on: HOP-92 NSCLC
HS 578T breast = tested on: HS 578T breast
HT29 colon = tested on: HT29 colon
IGROV1 ovarian = tested on: IGROV1 ovarian
K-562 leukemia = tested on: K-562 leukemia
KM12 colon = tested on: KM12 colon
LOX IMVI melanoma = tested on: LOX IMVI melanoma
M14 melanoma = tested on: M14 melanoma
MALME-3M melanoma = tested on: MALME-3M melanoma
MCF7 breast = tested on: MCF7 breast
MDA-MB-231 breast = tested on: MDA-MB-231 breast
MDA-MB-435 = tested on: MDA-MB-435
MOLT-4 leukemia = tested on: MOLT-4 leukemia
NCI-H226 lung = tested on: NCI-H226 lung
NCI-H23 lung = tested on: NCI-H23 lung
NCI-H460 lung = tested on: NCI-H460 lung
NCI-H522 lung = tested on: NCI-H522 lung
NCI/ADR-RES ovarian = tested on: NCI/ADR-RES ovarian
OVCAR-4 ovarian = tested on: OVCAR-4 ovarian
OVCAR-5 ovarian = tested on: OVCAR-5 ovarian
OVCAR-8 ovarian = tested on: OVCAR-8 ovarian
PC-3 prostate = tested on: PC-3 prostate
RPMI-8226 leukemia = tested on: RPMI-8226 leukemia
RXF 393 renal = tested on: RXF 393 renal
SF-268 CNS = tested on: SF-268 CNS
SF-295 CNS = tested on: SF-295 CNS
SF-539 CNS = tested on: SF-539 CNS
SK-MEL-2 melanoma = tested on: SK-MEL-2 melanoma
SK-MEL-28 melanoma = tested on: SK-MEL-28 melanoma
SK-MEL-5 melanoma = tested on: SK-MEL-5 melanoma
SK-OV-3 ovarian = tested on: SK-OV-3 ovarian
SN12C renal = tested on: SN12C renal
SNB-19 CNS = tested on: SNB-19 CNS
SNB-75 CNS = tested on: SNB-75 CNS
SR leukemia = tested on: SR leukemia
SW-620 colon = tested on: SW-620 colon
T-47D breast = tested on: T-47D breast
TK-10 renal = tested on: TK-10 renal
U251 CNS = tested on: U251 CNS
UACC-257 melanoma = tested on: UACC-257 melanoma
UACC-62 melanoma = tested on: UACC-62 melanoma
UO-31 renal = tested on: UO-31 renal

O=c1c2cc(-c3ccc(F)cc3F)ccc2n(Nc2ccccc2)c(=O)n1-c1cccc(C(F)(F)F)c1
GI50 (786-0 renal): 1.86 µM | TGI (786-0 renal): 3.83 µM | GI50 (A498 renal): 0.358 µM | TGI (A498 renal): 1.25 µM | GI50 (A549 NSCLC): 2.96 µM | TGI (A549 NSCLC): 12.7 µM | GI50 (ACHN renal): 1.81 µM | TGI (ACHN renal): 5.31 µM | GI50 (BT-549 breast): 1.12 µM | TGI (BT-549 breast): 2.53 µM | GI50 (CAKI-1 renal): 1.51 µM | TGI (CAKI-1 renal): 4.37 µM | GI50 (CCRF-CEM leukemia): 1.97 µM | TGI (CCRF-CEM leukemia): 9.76 µM | GI50 (COLO 205 colon): 1.8 µM | TGI (COLO 205 colon): 3.27 µM | GI50 (DU-145 prostate): 2.56 µM | TGI (DU-145 prostate): 61.7 µM | GI50 (EKVX NSCLC): 2.35 µM | TGI (EKVX NSCLC): 7.91 µM | GI50 (HCC-2998 colon): 2.55 µM | TGI (HCC-2998 colon): 6.84 µM | GI50 (HCT-116 colon): 1.03 µM | TGI (HCT-116 colon): 2.34 µM | GI50 (HCT-15 colon): 0.812 µM | TGI (HCT-15 colon): 2.55 µM | GI50 (HOP-62 NSCLC): 1.8 µM | TGI (HOP-62 NSCLC): 4.11 µM | GI50 (HOP-92 NSCLC): 0.19 µM | TGI (HOP-92 NSCLC): 0.679 µM | GI50 (HS 578T breast): 1.06 µM | TGI (HS 578T breast): 4.2 µM | GI50 (HT29 colon): 2.84 µM | TGI (HT29 colon): 7.74 µM | GI50 (IGROV1 ovarian): 1.91 µM | TGI (IGROV1 ovarian): 13.3 µM | GI50 (K-562 leukemia): 0.717 µM | TGI (K-562 leukemia): > 100 µM | GI50 (KM12 colon): 2.17 µM | TGI (KM12 colon): 5.66 µM | GI50 (LOX IMVI melanoma): 1.53 µM | TGI (LOX IMVI melanoma): 3.12 µM | GI50 (M14 melanoma): 1.65 µM | TGI (M14 melanoma): 4.17 µM | GI50 (MALME-3M melanoma): 1.5 µM | TGI (MALME-3M melanoma): 5.05 µM | GI50 (MCF7 breast): 1.81 µM | TGI (MCF7 breast): 7.44 µM | GI50 (MDA-MB-231 breast): 1.78 µM | TGI (MDA-MB-231 breast): 5.62 µM | GI50 (MDA-MB-435): 1.52 µM | TGI (MDA-MB-435): 5.04 µM | GI50 (MOLT-4 leukemia): 1.79 µM | TGI (MOLT-4 leukemia): 5.66 µM | GI50 (NCI-H226 lung): 1.32 µM | TGI (NCI-H226 lung): 3.42 µM | GI50 (NCI-H23 lung): 1.06 µM | TGI (NCI-H23 lung): 4.32 µM | GI50 (NCI-H460 lung): 0.775 µM | TGI (NCI-H460 lung): 4.39 µM | GI50 (NCI-H522 lung): 0.44 µM | TGI (NCI-H522 lung): 2.41 µM | GI50 (NCI/ADR-RES ovarian): 1.91 µM | TGI (NCI/ADR-RES ovarian): 7.74 µM | GI50 (OVCAR-4 ovarian): 2.67 µM | TGI (OVCAR-4 ovarian): > 100 µM | GI50 (OVCAR-5 ovarian): 3.15 µM | TGI (OVCAR-5 ovarian): 56.3 µM | GI50 (OVCAR-8 ovarian): 1.23 µM | TGI (OVCAR-8 ovarian): 3.72 µM | GI50 (PC-3 prostate): 1.35 µM | TGI (PC-3 prostate): 5.19 µM | GI50 (RPMI-8226 leukemia): 0.46 µM | TGI (RPMI-8226 leukemia): 2.57 µM | GI50 (RXF 393 renal): 1.2 µM | TGI (RXF 393 renal): 2.84 µM | GI50 (SF-268 CNS): 1.7 µM | TGI (SF-268 CNS): 7.98 µM | GI50 (SF-295 CNS): 1.83 µM | TGI (SF-295 CNS): 3.82 µM | GI50 (SF-539 CNS): 1.57 µM | TGI (SF-539 CNS): 5.64 µM | GI50 (SK-MEL-2 melanoma): 0.532 µM | TGI (SK-MEL-2 melanoma): 2.1 µM | GI50 (SK-MEL-28 melanoma): 1.28 µM | TGI (SK-MEL-28 melanoma): 4.69 µM | GI50 (SK-MEL-5 melanoma): 0.354 µM | TGI (SK-MEL-5 melanoma): 1.35 µM | GI50 (SK-OV-3 ovarian): 1.27 µM | TGI (SK-OV-3 ovarian): 3.01 µM | GI50 (SN12C renal): 1 µM | TGI (SN12C renal): 5.01 µM | GI50 (SNB-19 CNS): 0.931 µM | TGI (SNB-19 CNS): > 100 µM | GI50 (SNB-75 CNS): 1.4 µM | TGI (SNB-75 CNS): 4.86 µM | GI50 (SR leukemia): 1.11 µM | TGI (SR leukemia): 4.53 µM | GI50 (SW-620 colon): 1.51 µM | TGI (SW-620 colon): 3.55 µM | GI50 (T-47D breast): 1.4 µM | TGI (T-47D breast): 5.37 µM | GI50 (TK-10 renal): 3.98 µM | TGI (TK-10 renal): 8.5 µM | GI50 (U251 CNS): 1.74 µM | TGI (U251 CNS): 10.3 µM | GI50 (UACC-257 melanoma): 0.963 µM | TGI (UACC-257 melanoma): 3.82 µM | GI50 (UACC-62 melanoma): 0.337 µM | TGI (UACC-62 melanoma): 1.41 µM | GI50 (UO-31 renal): 1.98 µM | TGI (UO-31 renal): 5.96 µM
